Test results from BigSolDB 2.1.

O=C1OC(=O)[C@H]2[C@@H]1[C@@H]1C=C[C@H]2O1
solubility (mole fraction)
Settings	278.15 K	283.15 K	288.15 K	293.15 K	298.15 K	303.15 K	308.15 K	313.15 K	318.15 K	323.15 K
in isobutyl acetate	–	–	–	–	–	–	0.022	0.0248	0.0283	0.0324
in isopentyl acetate	0.00727	0.00841	0.00971	0.011	0.0129	0.0147	0.0168	0.0196	0.0214	0.0251
in isopropyl acetate	0.0101	0.0126	0.014	0.0164	0.0191	0.022	0.0255	0.0295	0.0335	0.0395
in methyl acetate	0.0236	0.0281	0.031	0.0368	0.042	0.0496	0.0582	0.0687	0.0806	0.0965
in n-butyl acetate	0.00989	0.0115	0.0129	0.0149	0.0172	0.0196	0.0226	0.0258	0.0285	0.0339
in n-pentyl acetate	0.00784	0.00916	0.0105	0.012	0.0137	0.0158	0.018	0.0205	0.0231	0.0264
in n-propyl acetate	0.012	0.0135	0.0159	0.0179	0.021	0.0244	0.0277	0.033	0.0388	0.0435
